Assay results published in PubChem BioAssay AID1963839 (Molecular Pharmacology Branch, DTP, NCI, 2024).

System: 817829-284-R-J1-PDC complex spheroid viability
Experiment: Anticancer human tumor 817829-284-R-J1-PDC patient-derived colon adenocarcinoma cell line growth inhibition [POLQ]
Details: for IC50: curve of first compound; for viability, T/C: stronger effect = lower value
Outline: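 Complex spheroid viability model combining PDC tumour cells with endothelial (HUVEC) and MSC stromal cells. Novobiocin, ART-558 or RP6685 were tested singly and in combination with standard and investigational anticancer drugs. Each was titrated in half-log steps from near clinical Cmax, or from 10 microM where Cmax was unknown.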
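Further: spheroids exposed to compounds for 7 days.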
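Wherever viability, T/C is given: 100% = DMSO vehicle-treated spheroids.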

**Q.** Which results are given for `C=CC(=O)N1CCN(c2nc(=O)n(-c3c(C)ccnc3C(C)C)c3nc(-c4c(O)cccc4F)c(F)cc23)C(C)C1` (configuration not stated) + Cc1cccc(N(C)C(=O)C2C(O)CCN2c2nc(C)cc(C(F)(F)F)c2C#N)c1?
**A.** IC50 (second compound 0.0316 µM): 9.4 µM; IC50 (second compound 0.1 µM): 9.47 µM; IC50 (second compound 0.316 µM): 9.09 µM; IC50 (second compound 1 µM): 7.8 µM; IC50 (second compound 3.16 µM): 7.29 µM; IC50 (second compound 10 µM): > 10 µM; viability, T/C (second compound 0.0316 µM, first compound 0.0316 µM): 94.4%; viability, T/C (second compound 0.0316 µM, first compound 0.1 µM): 140%; viability, T/C (second compound 0.0316 µM, first compound 0.316 µM): 112%; viability, T/C (second compound 0.0316 µM, first compound 1 µM): 105%; viability, T/C (second compound 0.0316 µM, first compound 3.16 µM): 82.7%; viability, T/C (second compound 0.0316 µM, first compound 10 µM): 48%; viability, T/C (second compound 0.1 µM, first compound 0.0316 µM): 91.1%; viability, T/C (second compound 0.1 µM, first compound 0.1 µM): 109%; viability, T/C (second compound 0.1 µM, first compound 0.316 µM): 104%; viability, T/C (second compound 0.1 µM, first compound 1 µM): 110%; viability, T/C (second compound 0.1 µM, first compound 3.16 µM): 86.3%; viability, T/C (second compound 0.1 µM, first compound 10 µM): 48.2%; viability, T/C (second compound 0.316 µM, first compound 0.0316 µM): 92.2%; viability, T/C (second compound 0.316 µM, first compound 0.1 µM): 109%; viability, T/C (second compound 0.316 µM, first compound 0.316 µM): 108%; viability, T/C (second compound 0.316 µM, first compound 1 µM): 83.5%; viability, T/C (second compound 0.316 µM, first compound 3.16 µM): 83.1%; viability, T/C (second compound 0.316 µM, first compound 10 µM): 46.9%; viability, T/C (second compound 1 µM, first compound 0.0316 µM): 92.9%; viability, T/C (second compound 1 µM, first compound 0.1 µM): 91.2%; viability, T/C (second compound 1 µM, first compound 0.316 µM): 112%; viability, T/C (second compound 1 µM, first compound 1 µM): 99%; viability, T/C (second compound 1 µM, first compound 3.16 µM): 86.4%; viability, T/C (second compound 1 µM, first compound 10 µM): 39.9%; viability, T/C (second compound 3.16 µM, first compound 0.0316 µM): 113%; viability, T/C (second compound 3.16 µM, first compound 0.1 µM): 125%; viability, T/C (second compound 3.16 µM, first compound 0.316 µM): 87.8%; viability, T/C (second compound 3.16 µM, first compound 1 µM): 89.3%; viability, T/C (second compound 3.16 µM, first compound 3.16 µM): 76.3%; viability, T/C (second compound 3.16 µM, first compound 10 µM): 39.9%; viability, T/C (second compound 10 µM, first compound 0.0316 µM): 89.4%; viability, T/C (second compound 10 µM, first compound 0.1 µM): 104%; viability, T/C (second compound 10 µM, first compound 0.316 µM): 84%; viability, T/C (second compound 10 µM, first compound 1 µM): 113%; viability, T/C (second compound 10 µM, first compound 3.16 µM): 66.9%; viability, T/C (second compound 10 µM, first compound 10 µM): 54.9%
